details: bacteroides eggerthii, 12 h, 2 µM
Description: The drug is tested on Bacteroides eggerthii strain: DSM20697 for biotransformation. The drug concentrations were measured before and after a 12-h incubation by liquid-chromatography-coupled mass spectrometry (LC–MS)

| SMILES | Bacterial Biotransformation |
| --- | --- |
| C#C[C@]1(O)CC[C@H]2[C@@H]3CCC4=CC(=O)CC[C@@H]4[C@H]3CC[C@@]21CC [LEVONORGESTREL] | Compound NOT metabolized |
| Cc1cc2c(cc1S(N)(=O)=O)S(=O)(=O)CCC2 | Compound NOT metabolized |
| OCCN(CCO)c1nc(N2CCCCC2)c2nc(N(CCO)CCO)nc(N3CCCCC3)c2n1 [DIPYRIDAMOLE] | Compound NOT metabolized |
| CCN(CC)CCNC(=O)c1cc(Cl)c(N)cc1OC [METOCLOPRAMIDE] | Compound NOT metabolized |
| COc1ccc(Cc2nccc3cc(OC)c(OC)cc23)cc1OC [PAPAVERINE] | Compound NOT metabolized |

More lines, now with the values ahead:

| Bacterial Biotransformation | SMILES |
| --- | --- |
| Compound NOT metabolized | CCN(CC)CCOC(=O)C(Cc1cccc2ccccc12)CC1CCCO1.O=C(O)C(=O)O (stereo unspecified) [NAFRONYL OXALATE] |
| Compound NOT metabolized | CN1CCc2c(c3ccccc3n2Cc2ccccc2)C1.CN1CCc2c(c3ccccc3n2Cc2ccccc2)C1.O=S(=O)(O)c1cccc2c(S(=O)(=O)O)cccc12 |
| Compound NOT metabolized | CC(CCc1ccccc1)NCC(O)c1ccc(O)c(C(N)=O)c1 (stereo unspecified) [LABETALOL] |

details: bacteroides fragilis, 12 h, 2 µM
Description: The drug is tested on Bacteroides fragilis strain: DS-208 for biotransformation. The drug concentrations were measured before and after a 12-h incubation by liquid-chromatography-coupled mass spectrometry (LC–MS)

| SMILES | Bacterial Biotransformation |
| --- | --- |
| C#C[C@]1(O)CC[C@H]2[C@@H]3CCC4=CC(=O)CC[C@@H]4[C@H]3CC[C@@]21CC [LEVONORGESTREL] | Compound metabolized |
| Cc1cc2c(cc1S(N)(=O)=O)S(=O)(=O)CCC2 | Compound NOT metabolized |
| OCCN(CCO)c1nc(N2CCCCC2)c2nc(N(CCO)CCO)nc(N3CCCCC3)c2n1 [DIPYRIDAMOLE] | Compound metabolized |
| CCN(CC)CCNC(=O)c1cc(Cl)c(N)cc1OC [METOCLOPRAMIDE] | Compound NOT metabolized |
| COc1ccc(Cc2nccc3cc(OC)c(OC)cc23)cc1OC [PAPAVERINE] | Compound NOT metabolized |

Results, then the compound that gave them:

| Bacterial Biotransformation | SMILES |
| --- | --- |
| Compound NOT metabolized | CCN(CC)CCOC(=O)C(Cc1cccc2ccccc12)CC1CCCO1.O=C(O)C(=O)O (stereo unspecified) [NAFRONYL OXALATE] |
| Compound NOT metabolized | CN1CCc2c(c3ccccc3n2Cc2ccccc2)C1.CN1CCc2c(c3ccccc3n2Cc2ccccc2)C1.O=S(=O)(O)c1cccc2c(S(=O)(=O)O)cccc12 |
| Compound NOT metabolized | CC(CCc1ccccc1)NCC(O)c1ccc(O)c(C(N)=O)c1 (stereo unspecified) [LABETALOL] |

assay: The drug is tested on Eggerthella lenta strain: ATCC25559 for biotransformation. The drug concentrations were measured before and after a 12-h incubation by liquid-chromatography-coupled mass spectrometry (LC–MS); details: 2 µM

| SMILES | Bacterial Biotransformation |
| --- | --- |
| C#C[C@]1(O)CC[C@H]2[C@@H]3CCC4=CC(=O)CC[C@@H]4[C@H]3CC[C@@]21CC [LEVONORGESTREL] | Compound NOT metabolized |
| OCCN(CCO)c1nc(N2CCCCC2)c2nc(N(CCO)CCO)nc(N3CCCCC3)c2n1 [DIPYRIDAMOLE] | Compound NOT metabolized |
| CCN(CC)CCNC(=O)c1cc(Cl)c(N)cc1OC [METOCLOPRAMIDE] | Compound NOT metabolized |
| COc1ccc(Cc2nccc3cc(OC)c(OC)cc23)cc1OC [PAPAVERINE] | Compound NOT metabolized |

Other lines, results leading:

| Bacterial Biotransformation | SMILES |
| --- | --- |
| Compound NOT metabolized | CN1CCc2c(c3ccccc3n2Cc2ccccc2)C1.CN1CCc2c(c3ccccc3n2Cc2ccccc2)C1.O=S(=O)(O)c1cccc2c(S(=O)(=O)O)cccc12 |
| Compound NOT metabolized | CC(CCc1ccccc1)NCC(O)c1ccc(O)c(C(N)=O)c1 (stereo unspecified) [LABETALOL] |

details: victivallis vadensis, 12 h, 2 µM
Description: The drug is tested on Victivallis vadensis strain: ATCC BAA-548 for biotransformation. The drug concentrations were measured before and after a 12-h incubation by liquid-chromatography-coupled mass spectrometry (LC–MS)

| SMILES | Bacterial Biotransformation |
| --- | --- |
| CCN(CC)CCOC(=O)C(Cc1cccc2ccccc12)CC1CCCO1.O=C(O)C(=O)O (stereo unspecified) [NAFRONYL OXALATE] | Compound NOT metabolized |
| Cc1cc2c(cc1S(N)(=O)=O)S(=O)(=O)CCC2 | Compound NOT metabolized |

assay: The drug is tested on Anaerococcus hydrogenalis strain: DSM7454 for biotransformation. The drug concentrations were measured before and after a 12-h incubation by liquid-chromatography-coupled mass spectrometry (LC–MS); details: 2 µM

| SMILES | Bacterial Biotransformation |
| --- | --- |
| C#C[C@]1(O)CC[C@H]2[C@@H]3CCC4=CC(=O)CC[C@@H]4[C@H]3CC[C@@]21CC [LEVONORGESTREL] | Compound NOT metabolized |
| Cc1cc2c(cc1S(N)(=O)=O)S(=O)(=O)CCC2 | Compound NOT metabolized |
| OCCN(CCO)c1nc(N2CCCCC2)c2nc(N(CCO)CCO)nc(N3CCCCC3)c2n1 [DIPYRIDAMOLE] | Compound NOT metabolized |
| CCN(CC)CCNC(=O)c1cc(Cl)c(N)cc1OC [METOCLOPRAMIDE] | Compound NOT metabolized |
| COc1ccc(Cc2nccc3cc(OC)c(OC)cc23)cc1OC [PAPAVERINE] | Compound NOT metabolized |

Next, values leading:

| Bacterial Biotransformation | SMILES |
| --- | --- |
| Compound NOT metabolized | CCN(CC)CCOC(=O)C(Cc1cccc2ccccc12)CC1CCCO1.O=C(O)C(=O)O (stereo unspecified) [NAFRONYL OXALATE] |
| Compound NOT metabolized | CN1CCc2c(c3ccccc3n2Cc2ccccc2)C1.CN1CCc2c(c3ccccc3n2Cc2ccccc2)C1.O=S(=O)(O)c1cccc2c(S(=O)(=O)O)cccc12 |
| Compound NOT metabolized | CC(CCc1ccccc1)NCC(O)c1ccc(O)c(C(N)=O)c1 (stereo unspecified) [LABETALOL] |

details: bacteroides thetaiotaomicron, 12 h, 2 µM
Description: The drug is tested on Bacteroides thetaiotaomicron strain: 7330 for biotransformation. The drug concentrations were measured before and after a 12-h incubation by liquid-chromatography-coupled mass spectrometry (LC–MS)

| SMILES | Bacterial Biotransformation |
| --- | --- |
| C#C[C@]1(O)CC[C@H]2[C@@H]3CCC4=CC(=O)CC[C@@H]4[C@H]3CC[C@@]21CC [LEVONORGESTREL] | Compound metabolized |
| Cc1cc2c(cc1S(N)(=O)=O)S(=O)(=O)CCC2 | Compound NOT metabolized |
| OCCN(CCO)c1nc(N2CCCCC2)c2nc(N(CCO)CCO)nc(N3CCCCC3)c2n1 [DIPYRIDAMOLE] | Compound NOT metabolized |
| CCN(CC)CCNC(=O)c1cc(Cl)c(N)cc1OC [METOCLOPRAMIDE] | Compound NOT metabolized |
| COc1ccc(Cc2nccc3cc(OC)c(OC)cc23)cc1OC [PAPAVERINE] | Compound NOT metabolized |

Next, values leading:

| Bacterial Biotransformation | SMILES |
| --- | --- |
| Compound NOT metabolized | CCN(CC)CCOC(=O)C(Cc1cccc2ccccc12)CC1CCCO1.O=C(O)C(=O)O (stereo unspecified) [NAFRONYL OXALATE] |
| Compound NOT metabolized | CN1CCc2c(c3ccccc3n2Cc2ccccc2)C1.CN1CCc2c(c3ccccc3n2Cc2ccccc2)C1.O=S(=O)(O)c1cccc2c(S(=O)(=O)O)cccc12 |
| Compound NOT metabolized | CC(CCc1ccccc1)NCC(O)c1ccc(O)c(C(N)=O)c1 (stereo unspecified) [LABETALOL] |

assay: The drug is tested on Bacteroides uniformis strain: ATCC8492 for biotransformation. The drug concentrations were measured before and after a 12-h incubation by liquid-chromatography-coupled mass spectrometry (LC–MS); details: 2 µM

| SMILES | Bacterial Biotransformation |
| --- | --- |
| C#C[C@]1(O)CC[C@H]2[C@@H]3CCC4=CC(=O)CC[C@@H]4[C@H]3CC[C@@]21CC [LEVONORGESTREL] | Compound metabolized |
| Cc1cc2c(cc1S(N)(=O)=O)S(=O)(=O)CCC2 | Compound NOT metabolized |
| CCN(CC)CCNC(=O)c1cc(Cl)c(N)cc1OC [METOCLOPRAMIDE] | Compound NOT metabolized |

Further lines, results first:

| Bacterial Biotransformation | SMILES |
| --- | --- |
| Compound metabolized | CCN(CC)CCOC(=O)C(Cc1cccc2ccccc12)CC1CCCO1.O=C(O)C(=O)O (stereo unspecified) [NAFRONYL OXALATE] |
| Compound NOT metabolized | CN1CCc2c(c3ccccc3n2Cc2ccccc2)C1.CN1CCc2c(c3ccccc3n2Cc2ccccc2)C1.O=S(=O)(O)c1cccc2c(S(=O)(=O)O)cccc12 |
| Compound NOT metabolized | CC(CCc1ccccc1)NCC(O)c1ccc(O)c(C(N)=O)c1 (stereo unspecified) [LABETALOL] |
